± gives the uncertainty stated by the source.
System: HepG2 (L1.3 5'UTR promoter firefly luciferase reporter)
Test: L1 promoter activity (FLuc/RLuc) relative to DMSO vehicle control (% of control); higher = stronger L1 promoter activation
Description: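 HepG2 cells in 96-well plates were cotransfected with pGL4.11-L1.3 5'UTR (firefly luciferase driven by the human L1.3 5'UTR promoter) and pGL4.74 (HSV-TK Renilla luciferase internal control), then treated with compound for 6 or 24 h. FLuc/RLuc ratio was normalised to the DMSO vehicle control (% of control); concentrations where RLuc fell below 50% of control were excluded (N.D.). Mean of at least two independent experiments in duplicate or quadruplicate.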

[1] = concentration (uM unless unit written): 125, treatment time: 6 h
[2] = concentration (uM unless unit written): 125, treatment time: 24 h
[3] = concentration (uM unless unit written): 50, treatment time: 6 h
[4] = concentration (uM unless unit written): 50, treatment time: 24 h
[5] = concentration (uM unless unit written): 500, treatment time: 6 h
[6] = concentration (uM unless unit written): 1000, treatment time: 6 h
[7] = concentration (uM unless unit written): 1, treatment time: 6 h
[8] = concentration (uM unless unit written): 1, treatment time: 24 h
[9] = concentration (uM unless unit written): 10, treatment time: 6 h
[10] = concentration (uM unless unit written): 10, treatment time: 24 h
[11] = concentration (uM unless unit written): 100, treatment time: 6 h
[12] = concentration (uM unless unit written): 100, treatment time: 24 h
[13] = concentration (uM unless unit written): 250, treatment time: 6 h
[14] = concentration (uM unless unit written): 250, treatment time: 24 h
[15] = concentration (uM unless unit written): 500, treatment time: 24 h
[16] = concentration (uM unless unit written): 25, treatment time: 6 h
[17] = concentration (uM unless unit written): 25, treatment time: 24 h

CCCCc1nc(Cl)c(CO)n1Cc1ccc(-c2ccccc2-c2nnn[nH]2)cc1 [Losartan]
L1 promoter activity (concentration (uM unless unit written): 15.625, treatment time: 6 h): 93.6 ± 6.2 | L1 promoter activity (concentration (uM unless unit written): 15.625, treatment time: 24 h): 92.6 ± 10 | L1 promoter activity (concentration (uM unless unit written): 31.25, treatment time: 6 h): 106 ± 7.8 | L1 promoter activity (concentration (uM unless unit written): 31.25, treatment time: 24 h): 102 ± 10 | L1 promoter activity (concentration (uM unless unit written): 62.5, treatment time: 6 h): 109 ± 8.7 | L1 promoter activity (concentration (uM unless unit written): 62.5, treatment time: 24 h): 98.6 ± 11 | L1 promoter activity [1]: 101 ± 10 | L1 promoter activity [2]: 95.1 ± 7.4

Cc1cccc(Nc2ccccc2C(=O)O)c1C [Mefenamic acid]
L1 promoter activity [3]: 128 ± 8.3 | L1 promoter activity [4]: 91 ± 5.5 | L1 promoter activity [5]: 113 ± 19 | L1 promoter activity [6]: 93.8 ± 13

CC1=CC(=O)c2ccccc2C1=O [Menadione]
L1 promoter activity (concentration (uM unless unit written): 17.5, treatment time: 6 h): 116 ± 11

O=C1NC(=S)NC(=O)C1C(=O)Nc1ccccc1 [Merbarone]
L1 promoter activity [7]: 112 ± 12 | L1 promoter activity [8]: 113 ± 13 | L1 promoter activity [9]: 140 ± 17 | L1 promoter activity [10]: 147 ± 17 | L1 promoter activity [3]: 171 ± 27 | L1 promoter activity [4]: 219 ± 30 | L1 promoter activity [11]: 182 ± 16 | L1 promoter activity [12]: 198 ± 32

CN(C)CCN(Cc1cccs1)c1ccccn1 [Methapyrilene]
L1 promoter activity [13]: 97.7 ± 2.8 | L1 promoter activity [14]: 101 ± 25 | L1 promoter activity [5]: 86.6 ± 8.4 | L1 promoter activity [6]: 72.8 ± 12

CN(Cc1cnc2nc(N)nc(N)c2n1)c1ccc(C(=O)N[C@@H](CCC(=O)O)C(=O)O)cc1 [Methotrexate]
L1 promoter activity [9]: 86.8 ± 9.6 | L1 promoter activity [10]: 112 ± 36 | L1 promoter activity [11]: 93.4 ± 13 | L1 promoter activity [12]: 108 ± 48 | L1 promoter activity (concentration (uM unless unit written): 200, treatment time: 6 h): 93.6 ± 12 | L1 promoter activity (concentration (uM unless unit written): 200, treatment time: 24 h): 142 ± 41

COS(C)(=O)=O [Methyl methanesulfonate]
L1 promoter activity [1]: 113 ± 11 | L1 promoter activity [2]: 90.8 ± 4.2 | L1 promoter activity [13]: 107 ± 15 | L1 promoter activity [14]: 88.2 ± 13 | L1 promoter activity [5]: 100 ± 12 | L1 promoter activity [15]: 83.2 ± 4.5

C[C@]12CCC(=O)C=C1CC[C@@H]1[C@@H]2CC[C@@]2(C)[C@H]1CC[C@]2(C)O [Methyltestosterone]
L1 promoter activity [16]: 94.7 ± 15 | L1 promoter activity [17]: 73.9 ± 15 | L1 promoter activity [3]: 108 ± 4.4 | L1 promoter activity [4]: 74.5 ± 14 | L1 promoter activity [11]: 98.5 ± 14 | L1 promoter activity [12]: 85.3 ± 3.9

CC(C)(C(=O)c1cccnc1)c1cccnc1 [Metyrapone]
L1 promoter activity [1]: 121 ± 7.4 | L1 promoter activity [2]: 111 ± 11 | L1 promoter activity [13]: 142 ± 18 | L1 promoter activity [14]: 121 ± 11 | L1 promoter activity [5]: 127 ± 3.5 | L1 promoter activity [15]: 135 ± 14

CC[C@H](C)C(=O)O[C@H]1CCC=C2C=C[C@H](C)[C@H](CC[C@@H]3C[C@@H](O)CC(=O)O3)[C@H]21 [Mevastatin]
L1 promoter activity [7]: 114 ± 22 | L1 promoter activity [8]: 118 ± 31 | L1 promoter activity (concentration (uM unless unit written): 3, treatment time: 6 h): 101 ± 24 | L1 promoter activity (concentration (uM unless unit written): 3, treatment time: 24 h): 105 ± 12 | L1 promoter activity (concentration (uM unless unit written): 6, treatment time: 6 h): 123 ± 43 | L1 promoter activity (concentration (uM unless unit written): 6, treatment time: 24 h): 103 ± 18

CO[C@@]12[C@H](COC(N)=O)C3=C(C(=O)C(C)=C(N)C3=O)N1C[C@@H]1N[C@@H]12 [Mitomycin C]
L1 promoter activity (concentration (uM unless unit written): 2.5, treatment time: 6 h): 119 ± 25 | L1 promoter activity (concentration (uM unless unit written): 2.5, treatment time: 24 h): 131 ± 10 | L1 promoter activity [9]: 96.4 ± 11 | L1 promoter activity [10]: 114 ± 25

COC(=O)C1=C(C)NC(C)=C(C(=O)OC)C1c1ccccc1[N+](=O)[O-] [Nifedipine]
L1 promoter activity [9]: 96.1 ± 10 | L1 promoter activity [10]: 104 ± 8.8 | L1 promoter activity [16]: 98.4 ± 2.3 | L1 promoter activity [17]: 126 ± 5.6 | L1 promoter activity [3]: 97.2 ± 12 | L1 promoter activity [4]: 104 ± 7 | L1 promoter activity [11]: 88.6 ± 24 | L1 promoter activity [12]: 91.2 ± 2.6
